Measured values as given in ChEMBL document CHEMBL4507258 (2021).

What was measured:
[1] = molecular target: Serine/threonine-protein kinase Nek4 (Homo sapiens) (UniProt P51957); conditions: Compound concentration 1000.0 nM
[2] = molecular target: Serine/threonine-protein kinase PAK 6 (Homo sapiens) (UniProt Q9NQU5); conditions: Compound concentration 1000.0 nM
[3] = molecular target: Mitogen-activated protein kinase kinase kinase kinase 1 (Homo sapiens) (UniProt Q92918); conditions: Compound concentration 1000.0 nM
[4] = molecular target: 5-hydroxytryptamine receptor 2A (Homo sapiens) (UniProt P28223); conditions: Compound concentration 10.0 uM
[5] = molecular target: Microtubule-associated serine/threonine-protein kinase 1 (Homo sapiens) (UniProt Q9Y2H9); conditions: Compound concentration 1000.0 nM
[6] = molecular target: Interleukin-1 receptor-associated kinase 4 (Homo sapiens) (UniProt Q9NWZ3); conditions: Compound concentration 1000.0 nM
[7] = molecular target: Calcium/calmodulin-dependent protein kinase type II subunit beta (Homo sapiens) (UniProt Q13554); conditions: Compound concentration 1000.0 nM
[8] = molecular target: Cyclin-dependent kinase 4 (Homo sapiens) (UniProt P11802); conditions: Compound concentration 1000.0 nM
[9] = molecular target: Ankyrin repeat and protein kinase domain-containing protein 1 (Homo sapiens) (UniProt Q8NFD2); conditions: Compound concentration 1000.0 nM
[10] = molecular target: BMP-2-inducible protein kinase (Homo sapiens) (UniProt Q9NSY1); conditions: Compound concentration 1000.0 nM
[11] = molecular target: Tyrosine-protein kinase JAK3 (Homo sapiens) (UniProt P52333); conditions: Compound concentration 1000.0 nM
[12] = molecular target: Dual specificity mitogen-activated protein kinase kinase 2 (Homo sapiens) (UniProt P36507); conditions: Compound concentration 1000.0 nM
[13] = molecular target: Serine/threonine-protein kinase PAK 1 (Homo sapiens) (UniProt Q13153); conditions: Compound concentration 1000.0 nM
[14] = test system: Receptor-type tyrosine-protein kinase FLT3 (Homo sapiens), P36888 [D835Y]; conditions: Compound concentration 1000.0 nM
[15] = molecular target: Mitogen-activated protein kinase 6 (Homo sapiens) (UniProt Q16659); conditions: Compound concentration 1000.0 nM
[16] = molecular target: Cyclin-dependent kinase 3 (Homo sapiens) (UniProt Q00526); conditions: Compound concentration 1000.0 nM
[17] = molecular target: NUAK family SNF1-like kinase 1 (Homo sapiens) (UniProt O60285); conditions: Compound concentration 1000.0 nM
[18] = molecular target: Rhodopsin kinase GRK1 (Homo sapiens) (UniProt Q15835); conditions: Compound concentration 1000.0 nM
[19] = molecular target: Ribosomal protein S6 kinase alpha-1 (Homo sapiens) (UniProt Q15418); conditions: Compound concentration 1000.0 nM
[20] = molecular target: Serine/threonine-protein kinase WNK1 (Homo sapiens) (UniProt Q9H4A3); conditions: Compound concentration 1000.0 nM
[21] = molecular target: Dual specificity protein kinase CLK3 (Homo sapiens) (UniProt P49761); conditions: Compound concentration 1000.0 nM
[22] = molecular target: Activin receptor type-1-like (Homo sapiens) (UniProt P37023); conditions: Compound concentration 1000.0 nM
[23] = molecular target: Activin receptor type-1B (Homo sapiens) (UniProt P36896); conditions: Compound concentration 1000.0 nM
[24] = molecular target: Cyclin-dependent kinase 18 (Homo sapiens) (UniProt Q07002); conditions: Compound concentration 1000.0 nM
[25] = molecular target: ALK tyrosine kinase receptor (Homo sapiens) (UniProt Q9UM73); conditions: Compound concentration 1000.0 nM
[26] = molecular target: Serine/threonine-protein kinase NLK (Homo sapiens) (UniProt Q9UBE8); conditions: Compound concentration 1000.0 nM
[27] = molecular target: Proto-oncogene tyrosine-protein kinase Src (Homo sapiens) (UniProt P12931); conditions: Compound concentration 1000.0 nM
[28] = molecular target: Cyclin-dependent kinase 13 (Homo sapiens) (UniProt Q14004); conditions: Compound concentration 1000.0 nM
[29] = molecular target: D(1A) dopamine receptor (Homo sapiens) (UniProt P21728); conditions: Compound concentration 10.0 uM
[30] = molecular target: 5-hydroxytryptamine receptor 1B (Homo sapiens) (UniProt P28222); conditions: Compound concentration 10.0 uM
[31] = molecular target: Ephrin type-B receptor 1 (Homo sapiens) (UniProt P54762); conditions: Compound concentration 1000.0 nM
[32] = molecular target: Activin receptor type-1 (Homo sapiens) (UniProt Q04771); conditions: Compound concentration 1000.0 nM
[33] = molecular target: Tyrosine-protein kinase Fer (Homo sapiens) (UniProt P16591); conditions: Compound concentration 1000.0 nM
[34] = molecular target: Serine/threonine-protein kinase 3 (Homo sapiens) (UniProt Q13188); conditions: Compound concentration 1000.0 nM
[35] = molecular target: Serine/threonine-protein kinase/endoribonuclease IRE1 (Homo sapiens) (UniProt O75460); conditions: Compound concentration 1000.0 nM
[36] = molecular target: Citron Rho-interacting kinase (Homo sapiens) (UniProt O14578); conditions: Compound concentration 1000.0 nM
[37] = molecular target: Maternal embryonic leucine zipper kinase (Homo sapiens) (UniProt Q14680); conditions: Compound concentration 1000.0 nM
[38] = molecular target: Vascular endothelial growth factor receptor 2 (Homo sapiens) (UniProt P35968); conditions: Compound concentration 1000.0 nM
[39] = molecular target: Serine/threonine-protein kinase Nek1 (Homo sapiens) (UniProt Q96PY6); conditions: Compound concentration 1000.0 nM
[40] = molecular target: Ribosomal protein S6 kinase alpha-4 (Homo sapiens) (UniProt O75676); conditions: Compound concentration 1000.0 nM
[41] = molecular target: Ribosomal protein S6 kinase alpha-5 (Homo sapiens) (UniProt O75582); conditions: Compound concentration 1000.0 nM
[42] = molecular target: Serine/threonine-protein kinase Nek10 (Homo sapiens) (UniProt Q6ZWH5); conditions: Compound concentration 1000.0 nM
[43] = molecular target: Tyrosine-protein kinase ZAP-70 (Homo sapiens) (UniProt P43403); conditions: Compound concentration 1000.0 nM
[44] = molecular target: SRSF protein kinase 3 (Homo sapiens) (UniProt Q9UPE1); conditions: Compound concentration 1000.0 nM
[45] = molecular target: Myosin light chain kinase family member 4 (Homo sapiens) (UniProt Q86YV6); conditions: Compound concentration 1000.0 nM
[46] = molecular target: Vascular endothelial growth factor receptor 1 (Homo sapiens) (UniProt P17948); conditions: Compound concentration 1000.0 nM

Sequence of Serine/threonine-protein kinase PAK 6 (Homo sapiens) (Q9NQU5 whole entry, looked up): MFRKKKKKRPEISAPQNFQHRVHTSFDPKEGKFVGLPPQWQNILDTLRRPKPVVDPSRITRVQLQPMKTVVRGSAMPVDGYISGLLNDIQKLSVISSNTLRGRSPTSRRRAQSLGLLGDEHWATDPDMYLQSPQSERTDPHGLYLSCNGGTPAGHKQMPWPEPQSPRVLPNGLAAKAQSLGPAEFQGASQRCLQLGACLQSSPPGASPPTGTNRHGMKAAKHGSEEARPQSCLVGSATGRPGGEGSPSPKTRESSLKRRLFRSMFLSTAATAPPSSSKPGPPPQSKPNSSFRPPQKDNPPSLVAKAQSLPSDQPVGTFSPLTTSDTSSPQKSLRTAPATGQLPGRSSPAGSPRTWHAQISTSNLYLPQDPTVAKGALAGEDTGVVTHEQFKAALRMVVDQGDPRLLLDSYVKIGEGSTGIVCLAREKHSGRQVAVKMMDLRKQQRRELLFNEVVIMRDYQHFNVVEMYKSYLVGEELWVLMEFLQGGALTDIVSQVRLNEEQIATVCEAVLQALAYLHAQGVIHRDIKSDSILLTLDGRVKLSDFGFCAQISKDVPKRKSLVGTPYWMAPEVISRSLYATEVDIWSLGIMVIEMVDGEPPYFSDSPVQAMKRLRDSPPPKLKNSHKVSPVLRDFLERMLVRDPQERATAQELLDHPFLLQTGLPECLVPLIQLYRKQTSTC
Sequence of Activin receptor type-1B (Homo sapiens) (P36896 whole entry): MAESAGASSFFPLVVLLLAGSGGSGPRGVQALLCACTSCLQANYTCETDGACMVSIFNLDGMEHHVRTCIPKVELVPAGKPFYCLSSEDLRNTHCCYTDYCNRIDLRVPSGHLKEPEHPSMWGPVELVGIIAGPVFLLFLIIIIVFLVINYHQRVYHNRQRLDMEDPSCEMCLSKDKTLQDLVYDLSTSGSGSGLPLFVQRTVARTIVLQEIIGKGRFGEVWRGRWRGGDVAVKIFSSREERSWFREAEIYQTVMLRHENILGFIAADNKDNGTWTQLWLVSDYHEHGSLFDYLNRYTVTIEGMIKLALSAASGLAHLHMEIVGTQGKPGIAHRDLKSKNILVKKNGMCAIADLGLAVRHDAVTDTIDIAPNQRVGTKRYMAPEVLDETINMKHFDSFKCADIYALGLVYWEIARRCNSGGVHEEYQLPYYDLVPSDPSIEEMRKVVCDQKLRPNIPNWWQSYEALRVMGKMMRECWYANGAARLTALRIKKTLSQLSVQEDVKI
Sequence of NUAK family SNF1-like kinase 1 (Homo sapiens) (O60285 whole entry): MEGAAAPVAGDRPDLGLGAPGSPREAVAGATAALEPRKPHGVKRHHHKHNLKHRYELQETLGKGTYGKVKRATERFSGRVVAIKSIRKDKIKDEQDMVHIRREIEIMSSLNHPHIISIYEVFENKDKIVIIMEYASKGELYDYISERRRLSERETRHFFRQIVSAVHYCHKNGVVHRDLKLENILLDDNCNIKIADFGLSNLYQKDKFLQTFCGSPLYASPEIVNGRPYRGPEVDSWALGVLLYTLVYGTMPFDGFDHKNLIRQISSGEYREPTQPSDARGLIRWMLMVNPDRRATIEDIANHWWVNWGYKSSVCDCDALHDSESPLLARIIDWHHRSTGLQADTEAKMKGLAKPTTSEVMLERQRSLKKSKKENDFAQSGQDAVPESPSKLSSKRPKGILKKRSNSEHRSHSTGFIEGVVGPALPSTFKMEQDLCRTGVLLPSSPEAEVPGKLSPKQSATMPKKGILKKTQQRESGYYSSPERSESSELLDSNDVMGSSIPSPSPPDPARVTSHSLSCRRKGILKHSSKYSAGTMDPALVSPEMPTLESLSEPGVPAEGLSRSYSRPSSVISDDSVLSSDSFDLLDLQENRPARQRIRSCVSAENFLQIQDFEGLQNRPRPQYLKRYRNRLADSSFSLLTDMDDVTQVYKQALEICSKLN
Sequence of Dual specificity mitogen-activated protein kinase kinase 2 (Homo sapiens) (P36507 whole entry): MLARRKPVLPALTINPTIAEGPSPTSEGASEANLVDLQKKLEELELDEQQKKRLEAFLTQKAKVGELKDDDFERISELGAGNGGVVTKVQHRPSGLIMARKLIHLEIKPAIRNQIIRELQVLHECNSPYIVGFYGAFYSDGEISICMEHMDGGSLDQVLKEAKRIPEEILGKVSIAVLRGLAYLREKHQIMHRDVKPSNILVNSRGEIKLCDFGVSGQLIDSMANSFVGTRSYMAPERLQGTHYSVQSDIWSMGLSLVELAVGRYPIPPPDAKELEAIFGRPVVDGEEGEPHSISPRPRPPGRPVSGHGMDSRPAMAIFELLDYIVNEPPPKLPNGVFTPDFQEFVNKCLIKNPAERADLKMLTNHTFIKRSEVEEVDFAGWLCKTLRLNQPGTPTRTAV
Sequence of Ephrin type-B receptor 1 (Homo sapiens) (P54762 whole entry): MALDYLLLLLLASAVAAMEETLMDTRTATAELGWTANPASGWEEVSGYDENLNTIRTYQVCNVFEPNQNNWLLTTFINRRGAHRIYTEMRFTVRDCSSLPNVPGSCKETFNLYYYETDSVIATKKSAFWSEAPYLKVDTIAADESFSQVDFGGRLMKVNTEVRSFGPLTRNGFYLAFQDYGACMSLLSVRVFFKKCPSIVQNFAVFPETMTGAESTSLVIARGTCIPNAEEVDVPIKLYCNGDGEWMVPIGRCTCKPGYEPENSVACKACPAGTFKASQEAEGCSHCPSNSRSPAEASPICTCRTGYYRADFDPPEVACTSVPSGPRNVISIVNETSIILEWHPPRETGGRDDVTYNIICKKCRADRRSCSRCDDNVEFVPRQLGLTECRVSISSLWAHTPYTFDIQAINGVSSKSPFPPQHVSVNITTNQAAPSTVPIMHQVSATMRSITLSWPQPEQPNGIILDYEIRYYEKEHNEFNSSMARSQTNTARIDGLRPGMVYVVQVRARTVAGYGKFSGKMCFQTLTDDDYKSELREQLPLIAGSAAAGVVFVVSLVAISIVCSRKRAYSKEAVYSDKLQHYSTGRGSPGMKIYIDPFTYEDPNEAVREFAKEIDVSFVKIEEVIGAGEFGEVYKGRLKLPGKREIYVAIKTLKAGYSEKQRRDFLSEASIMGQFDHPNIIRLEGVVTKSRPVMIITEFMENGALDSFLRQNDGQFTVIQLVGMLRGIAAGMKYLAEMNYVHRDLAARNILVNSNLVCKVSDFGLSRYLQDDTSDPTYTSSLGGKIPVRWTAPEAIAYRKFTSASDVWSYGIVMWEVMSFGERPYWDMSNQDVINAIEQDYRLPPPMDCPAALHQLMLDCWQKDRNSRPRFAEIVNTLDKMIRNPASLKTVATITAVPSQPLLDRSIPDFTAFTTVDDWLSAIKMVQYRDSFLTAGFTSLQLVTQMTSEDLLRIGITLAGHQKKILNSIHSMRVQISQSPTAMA
Sequence of Mitogen-activated protein kinase 6 (Homo sapiens) (Q16659 whole entry): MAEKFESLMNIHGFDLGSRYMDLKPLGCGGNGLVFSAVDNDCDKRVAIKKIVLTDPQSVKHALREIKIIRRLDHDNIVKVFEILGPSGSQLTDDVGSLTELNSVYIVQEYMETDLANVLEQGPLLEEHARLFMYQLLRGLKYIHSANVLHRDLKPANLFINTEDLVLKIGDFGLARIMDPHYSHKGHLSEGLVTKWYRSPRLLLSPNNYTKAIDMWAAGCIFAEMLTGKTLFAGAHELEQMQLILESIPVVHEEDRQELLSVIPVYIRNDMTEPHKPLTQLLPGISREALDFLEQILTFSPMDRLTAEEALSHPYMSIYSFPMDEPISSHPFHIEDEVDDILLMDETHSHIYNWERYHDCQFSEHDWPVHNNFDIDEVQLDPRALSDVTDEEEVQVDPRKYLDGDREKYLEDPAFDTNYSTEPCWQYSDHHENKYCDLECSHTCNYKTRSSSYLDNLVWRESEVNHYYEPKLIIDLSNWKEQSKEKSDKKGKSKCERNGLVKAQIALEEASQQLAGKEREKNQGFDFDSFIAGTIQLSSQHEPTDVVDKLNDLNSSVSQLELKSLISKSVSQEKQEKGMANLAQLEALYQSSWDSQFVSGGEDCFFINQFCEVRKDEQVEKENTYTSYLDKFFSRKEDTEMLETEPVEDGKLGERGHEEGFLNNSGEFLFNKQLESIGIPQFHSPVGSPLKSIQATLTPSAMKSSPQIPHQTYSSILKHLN
Sequence of Serine/threonine-protein kinase NLK (Homo sapiens) (Q9UBE8 whole entry): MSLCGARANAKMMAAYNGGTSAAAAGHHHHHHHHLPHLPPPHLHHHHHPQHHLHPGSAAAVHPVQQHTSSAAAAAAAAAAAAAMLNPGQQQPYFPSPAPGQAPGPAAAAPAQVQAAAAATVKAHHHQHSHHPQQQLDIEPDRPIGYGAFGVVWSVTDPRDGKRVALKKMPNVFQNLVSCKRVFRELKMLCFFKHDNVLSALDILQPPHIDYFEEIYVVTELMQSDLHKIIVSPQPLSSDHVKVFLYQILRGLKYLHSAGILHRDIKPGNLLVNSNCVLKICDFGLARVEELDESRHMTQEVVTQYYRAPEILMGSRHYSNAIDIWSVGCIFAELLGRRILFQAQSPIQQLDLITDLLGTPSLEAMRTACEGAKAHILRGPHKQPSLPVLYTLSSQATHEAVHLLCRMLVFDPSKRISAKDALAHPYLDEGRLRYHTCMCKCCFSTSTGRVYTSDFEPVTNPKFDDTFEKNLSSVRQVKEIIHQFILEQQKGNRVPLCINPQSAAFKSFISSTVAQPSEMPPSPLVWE
Sequence of Cyclin-dependent kinase 4 (Homo sapiens) (P11802 whole entry, the tested form may be a part): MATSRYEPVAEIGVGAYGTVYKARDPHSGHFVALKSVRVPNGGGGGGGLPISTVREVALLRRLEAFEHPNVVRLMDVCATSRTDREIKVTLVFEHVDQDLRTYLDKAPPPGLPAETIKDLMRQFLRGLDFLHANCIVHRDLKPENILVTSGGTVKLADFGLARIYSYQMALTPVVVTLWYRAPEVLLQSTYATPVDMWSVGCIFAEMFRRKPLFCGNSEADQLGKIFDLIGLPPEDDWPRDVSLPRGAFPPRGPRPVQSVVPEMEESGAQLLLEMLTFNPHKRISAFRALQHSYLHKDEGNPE

CCCCN(CCCC)C(=O)CN1C[C@@H](c2cc(OC)c3c(c2)OCO3)[C@H](C(=O)O)[C@H]1CC(C)(C)CCC [A-545]
inactive: residual activity [1] 93.9% | residual activity [2] 100% | residual activity [3] 99.6% | inhibition [4] 7.84% | residual activity [5] 100% | residual activity [6] 94.5% | residual activity [7] 100% | residual activity [8] 100% | residual activity [9] 95.7% | residual activity [10] 100% | residual activity [11] 93.6% | residual activity [12] 98% | residual activity [13] 95.9% | residual activity [14] 75.2% | residual activity [15] 96.5% | residual activity [16] 88.1% | residual activity [17] 82.4% | residual activity [18] 100% | residual activity [19] 75.7% | residual activity [20] 96.8% | residual activity [21] 100% | residual activity [22] 99.4% | residual activity [23] 96.4% | residual activity [24] 92.4% | residual activity [25] 100% | residual activity [26] 100% | residual activity [27] 75.2% | residual activity [28] 100% | inhibition [29] 16.6% | inhibition [30] -2.98% | residual activity [31] 100% | residual activity [32] 100% | residual activity [33] 100% | residual activity [34] 100% | residual activity [35] 100% | residual activity [36] 90.5% | residual activity [37] 100% | residual activity [38] 88.1% | residual activity [39] 100% | residual activity [40] 100% | residual activity [41] 98.5% | residual activity [42] 100% | residual activity [43] 98.5% | residual activity [44] 100% | residual activity [45] 100% | residual activity [46] 100%

CCCCN(CCCC)C(=O)CN1C[C@H](c2cc(OC)c3c(c2)OCO3)[C@@H](C(=O)O)[C@@H]1CC(C)(C)CCC [ABT-546]
inactive: residual activity [1] 85% | residual activity [2] 100% | residual activity [3] 90.6% | inhibition [4] 8.83% | residual activity [5] 100% | residual activity [6] 67.5% | residual activity [7] 100% | residual activity [8] 70.3% | residual activity [9] 55.1% | residual activity [10] 100% | residual activity [11] 71.3% | residual activity [12] 69.7% | residual activity [13] 100% | residual activity [14] 100% | residual activity [15] 100% | residual activity [16] 100% | residual activity [17] 100% | residual activity [18] 71.9% | residual activity [19] 100% | residual activity [20] 72.9% | residual activity [21] 100% | residual activity [22] 100% | residual activity [23] 96.4% | residual activity [24] 100% | residual activity [25] 58.3% | residual activity [26] 100% | residual activity [27] 100% | residual activity [28] 52.5% | inhibition [29] 4.66% | inhibition [30] 2.64% | residual activity [31] 100% | residual activity [32] 100% | residual activity [33] 100% | residual activity [34] 96.1% | residual activity [35] 70.6% | residual activity [36] 100% | residual activity [37] 100% | residual activity [38] 88.7% | residual activity [39] 100% | residual activity [40] 100% | residual activity [41] 100% | residual activity [42] 57.4% | residual activity [43] 70.1% | residual activity [44] 100% | residual activity [45] 99.1% | residual activity [46] 100%
